Measured values from patent publication US20120329985A1, “Optimal hydolysis conditions of soy protein to produce peptides with lipolysis-stimulating activity and their sequencing and use thereof” (TUNGHAI UNIVERSITY, priority 2011, published 2012).
Read-outs that look alike come from different tables or passages of the source. Values belong to the compound of their own block, whether it stands above or below them. Where a SMILES comes first, the peptide text is derived from it.

Key:
[1] = system: gastrointestinal enzymes (pepsin, pancreatin); assay: Resistance of the synthetical peptides in the mimic gastrointestinal environment; settings: pepsin 25:1, pH 2.0, 37° C., 4 hours; pancreatin 25:1, 4 hours
Description: (§2) Then adding pepsin with substrate-enzyme ratio at 25:1 and incubating for 4 hours is performed to mimic the environment in stomach. Following the incubation, the solution is neutralized by addition of 2N NaOH and heating some aliquot for 15 minutes to terminate the pepsin activity for freeze storage. The remainder is further incubated with pancreatin with substrate-enzyme ratio at 25:1 for 4 hours to mimic the intestinal environment. After termination of the enzyme activity by heating in boiled water and followed by cooling, the sample is freeze stored for the further analysis.
(§3) After temperature returned, the each frozen sample processed in the mimic gastrointestinal environment is centrifuged at 10,000×g for 40 minutes. After centrifugation, the supernatant is collected and filtrated through 0.22 μm filter, and added into the culture medium for 3T3-L1 adipocytes. On day 11 post-differentiation, the supernatant or cell extract are collected as the methods described in example 3 and example 7 for measuring the glycerol release and triglyceride residue in the adipocytes. The glycerol release and triglyceride residue in the adipocytes are calculated from the absorption excited by 500 and 520 nm wavelength.

[2] = system: gastrointestinal enzymes (pepsin, pancreatin); settings: pH 2
Description: as §2, §3

3T3-L1 adipocytes [3] = assay: Measurement of the triglyceride residue in 3T3-L1 adipocytes; assay type: cell-based; settings: 4 ppm fractions and synthetical peptides (FIG. 23)
Description: (§1) The precursor cells of 3T3-L1 cell are purchased from Food Industry Research and Development Institute in Taiwan. The purchased precursor cells of 3T3-L1 adipocytes are cultured in 24-wells plate with 1×10^4 cells/well. The cells are cultured with DMEM (Dulbecco's Modified Eagle Medium) containing 10% FBS (Fetal bovine serum) at 37° C. in the incubator with 5% CO2, and refresh cultured medium every two days. While the 3T3-L1 cells are filled within the culture dish, the culture medium is changed to the differentiation medium (DM) for promoting adipocytes differentiation, which is defined as day 0 post-differentiation. The differentiation medium contains 1.74 μM insulin, […] dexamethasone (DEX) and 0.5 mM isobutyl-methylxanthine (IBMX). From day 2 post-differentiation, the culture medium is exchanged to DMEM with 1.74 μM insulin and refreshed every two days until day 8 post-differentiation. On day 8 post-differentiation, the precursor cells would differentiate into mature 3T3-L1 adipocytes.
On day 11, the cultured cells are washed with PBS and lysed by adding lysis buffer. The supernatant of cell lysis is collected after centrifugation at 13000 rpm for 10 minutes. 10 μL supernatant of cell lysis is mixed with 1 ml triglyceride detecting kit (TR213) and incubated at room-temperature for 5 minutes. After the incubation, the triglyceride residue in the adipocytes could be calculated according to absorption excited by 500 nm wavelength and shown in FIG. 6. In FIG. 6, control experiment is the cells without treatment of ISP hydrolysate or any fractions.

3T3-L1 adipocytes [4] = assay: Measurement of the glycerol released from 3T3-L1 adipocytes; assay type: cell-based; settings: 4 ppm fractions and synthetical peptides (FIG. 22); control basal level 312.3
Description: as §1, with “adipocytes. […]” for “adipocytes.”
30 μL of the cultured medium is collected and mixed with detecting kit (GY105) to measure the glycerol release. After reaction at room-temperature for 5 minutes, the absorption excited by 520 nm wavelength is measured by spectrophotometer to calculate the glycerol released from adipocytes.

Bioactivity for lipolysis after gastrointestinal enzymes [1]: resistant
Compound: CC(C)C[C@H](NC(=O)[C@H](CC(C)C)NC(=O)[C@@H](N)CC(C)C)C(=O)O [Leu-Leu-Leu] (H-Leu-Leu-Leu-OH; N-terminus and C-terminus assumed)

Bioactivity for lipolysis after gastrointestinal enzymes [2]: resistant
Compound: CC(C)[C@H](N)C(=O)N[C@@H](Cc1c[nH]cn1)C(=O)N[C@H](C(=O)N[C@H](C(=O)O)C(C)C)C(C)C [Val-His-Val-Val] (H-VHVV-OH; N-terminus and C-terminus assumed)

Compound: Ile-Ile-Ile
Effect on triglyceride residue versus control (3T3-L1 adipocytes [3]): significantly reduce

Compound: Ile-Leu-Leu
Effect on triglyceride residue versus control (3T3-L1 adipocytes [3]): significantly reduce
Triglyceride residue (3T3-L1 adipocytes [3]; control 3.2): 1.41 μmol/mg protein
Glycerol release (3T3-L1 adipocytes [4]): 540.81 nmol/mg protein
